Where two headings read alike, the source gives them in different places. Marks after values point to notes of the source that are not given here.
Tests used:
[1] = system: LO2 human normal hepatocytes; assay: Cytotoxicity drug combination (isobole) assay LO2; type: cell-based
Experimental: (§1) For the drug combination inhibitory assays, six drug preparations, of which four comprised combinations of either artemiside or artemisone with celastrol in a fixed ratio of 80:20, 60:40, 40:60, and 20:80 were prepared and screened against HepG2 liver hepatocellular carcinoma and LO2 human normal hepatocytes respectively. Two of these six preparations employed each of artemiside, artemisone or celastrol alone at a concentration approximately 5–7 times higher than the IC50 of the individual drug as presented in Table 4. […] Thus, six combinations for artemiside (µM) and celastrol (µM) prepared were 500:0, 400:4, 300:8, 200:12, 100:16, and 0:20, respectively.
(§2) As above for the malaria combination assays, a mean ΣFIC<1.0 represents a synergistic interaction, >1.3 represents an antagonistic interaction and ΣFIC = 1 represents an indifferent or additive interaction. Additivity, synergism and antagonism were also be established from the linear plots constructed from the FIC values of each of the drugs. A concave hyperbolic plot indicates synergism, a convex hyperbolic plot indicates an antagonistic interaction, and a straight line indicates an additive interaction. Isobole analysis of the combinations of each of artemiside and artemisone in combination with celastrol was performed against HepG2 and LO2 cells respectively. In Figure 5 is presented the isoboles for each drug combination.
(§3) Next, combinations of each of artemiside and artemisone with celastrol were examined, according to the method used to establish additivity/synergism described above. […] Against the normal hepatocyte LO2 cell line, whilst the interaction of artemisone with celastrol was synergistic, that of artemiside was additive. Synergism and additivity were also evident from the linear plots determined from the FIC values of each of the drugs (Table 5 and Figure 6). Thus, synergism is confirmed for combinations of the amino-artemisinins with celastrol against the HepG2 carcinoma cell line, and for artemisone-celastrol against human normal hepatocyte LO2.

[2] = system: A375 melanoma cells; design: method as in Wong et al., 2020; conditions: ref Wong et al., 2020; cited from earlier work
[3] = system: HepG2 liver hepatocellular carcinoma; assay: MTT cytotoxicity assay HepG2; type: cell-based, human; conditions: for IC50: Homo sapiens, read-out: IC50 HepG2; for SI, selectivity index IC50 normal cell line/IC50 tumour cell line: LO2/HepG2
Experimental: (§4) Proliferative and non-proliferative mammalian cell lines: human liver and lung cancer cell lines HepG2 and A549, and immortalized normal liver LO2 and lung BEAS-2B cells were purchased from ATCC (Manassas, VA, United States). Cells were cultured in RPMI-1640 medium supplemented with 10% fetal bovine serum and antibiotics penicillin (50 U/mL) and streptomycin (50 μg/ml; Invitrogen, United Kingdom). All cells were incubated at 37°C in a 5% humidified CO2 incubator.
(§5) All test compounds were dissolved in DMSO at a final concentration of 50 mM and stored at −20°C before use. Cytotoxicity was assessed with A549, HepG2, BEAS-2B and LO2 cells. The MTT assay with 3-(4,5-dimethylthiazole-2yl)-2,5-diphenyltetrazolium bromide (5 mg/ml) was performed as previously described ([Ng et al., 2022]). Briefly, 4 × 10^3 cells per well were seeded in 96-well plates before drug treatment. After overnight cell culture, the cells were exposed to different concentrations of selected compounds (0.19–100 μM) for 72 h. Cells without drug treatment were used as control. Next, 10 μl of the MTT solution was added to each well and incubated at 37°C for another 4 h. Solubilization buffer (100 μl) was then added (10 mM HCl in a solution of 10% of SDS) and incubated overnight. The absorbance A at 570 nm was measured on the next day. The percentage of cell viability was calculated using the following formula: Cell viability (%) = Atreated/Acontrol × 100. Dose response curves for all assays are given in the Supplementary Figures S3–S6.
(§6) Cytotoxicity was assessed for each of artemisinin, DHA and artemether, and the amino-artemisinins artemiside and artemisone, and celastrol against A549 human lung carcinoma, BEAS-2B non-tumorigenic human bronchial epithelium, HepG2 liver hepatocellular carcinoma and LO2 human normal hepatocytes using the MTT assay ([Ng et al., 2022]). Data are presented in Table 4, and dose response curves are given in the Supplementary Figures S3–S6.

[4] = system: HepG2 liver hepatocellular carcinoma; assay: Cytotoxicity drug combination (isobole) assay HepG2; type: cell-based, human
Experimental: as §1, §2, §3

[5] = system: BEAS-2B non-tumorigenic human bronchial epithelium; assay: MTT cytotoxicity assay BEAS-2B; type: cell-based; conditions: 72 h, read-out: IC50 BEAS-2B
Experimental: as §4, §5, §6

[6] = system: asexual blood stage P. falciparum W2 (multidrug resistant); design: method as in Coertzen et al., 2018; Wong et al., 2019; conditions: ref Coertzen et al., 2018, Wong et al., 2019, cited from earlier work
[7] = system: late stage IV-V P. falciparum NF54 gametocytes; assay: Luciferase reporter gametocytocidal assay, late stage gametocytes; type: cell-based, Plasmodium falciparum; conditions: for IC50: Plasmodium falciparum; for Fold change preference ratio LG to EG: late vs immature stage gametocytes
Experimental: In vitro cultivation of asexual and gametocyte P. falciparum parasites: P. falciparum asexual blood stage parasites were cultivated in human erythrocytes in RPMI-1640 media supplemented with AlbuMax II under sterile conditions and in a hypoxic environment (90% N2, 5% CO2, and 5% O2) at 37°C as described previously ([Coertzen et al., 2018]; [Wong et al., 2019]). Gametocytes were produced from asexual blood stage parasites in a stage-specific manner through induction of cellular stress as described previously ([Reader et al., 2015]; [Coertzen et al., 2018]; [Wong et al., 2019]; [Reader et al., 2022]).
Untreated and 5 μM MB-treated immature and late-stage gametocytes were included as positive and negative controls. MB and artemisone were included as internal reference standards. In all cases, an interference assay to eliminate false positives from possible compound interference with the luciferase readout was run in parallel. Unless otherwise indicated, data are from technical triplicates, performed for three biological replicates. Complete dose-response curves are given in the (Supplementary Figures S2A,B).
Stage-specific activities of celastrol against immature (stage II-III) and late stage (stage IV-V) gametocytes were determined with the luc reporter line as described previously ([Coertzen et al., 2018]; [Wong et al., 2019]). Also included in Table 2 for direct comparison of activities with celastrol are gametocytocidal data for MB, artemisone and the artemisinin derivatives recorded previously ([Coertzen et al., 2018]; [Wong et al., 2019]).

[8] = artemisone:celastrol drug ratio 20:80, LO2
[9] = artemisone:celastrol drug ratio 40:60, LO2
[10] = artemisone:celastrol drug ratio 60:40, LO2
[11] = artemisone:celastrol drug ratio 80:20, LO2
[12] = artemisone:celastrol drug ratio 20:80, HepG2
[13] = artemisone:celastrol drug ratio 40:60, HepG2
[14] = artemisone:celastrol drug ratio 60:40, HepG2
[15] = artemisone:celastrol drug ratio 80:20, HepG2

Structure (SMILES): C[C@H]1[C@H](N2CCS(=O)(=O)CC2)O[C@@H]2O[C@@]3(C)CC[C@H]4[C@H](C)CC[C@@H]1[C@@]24OO3 [Artemisone, artemisone]
- FIC [1, 8]: 0.18
- FIC [1, 9]: 0.28
- FIC [1, 10]: 0.47
- FIC [1, 11]: 0.99
- IC50 [2]: 95700 nM
- IC50 ([3]; HepG2, MTT, 72 h, ± SD): 580 ± 200 nM
- SI, selectivity index IC50 normal cell line/IC50 tumour cell line [3]: >171
- SI, selectivity index IC50 normal cell line/IC50 tumour cell line ([3]; listed as artemisone): > 170
- FIC [4, 12]: 0.3
- FIC [4, 13]: 0.36
- FIC [4, 14]: 0.48
- FIC [4, 15]: 0.76
- IC50 ([5]; MTT, ± SD): 73600 ± 1400 nM
- IC50 ([6]; asexual blood stage, SYBR Green I, mean ± SEM): 1.6 ± 0.4 nM
- RI = IC50 W2/IC50 NF54 [6]: 1.36^f

Structure (SMILES): CC1=C(O)C(=O)C=C2C1=CC=C1[C@@]2(C)CC[C@@]2(C)[C@@H]3C[C@](C)(C(=O)O)CC[C@]3(C)CC[C@]12C [Celastrol, celastrol]
- FIC ([1]; artemiside:celastrol drug ratio 20:80, LO2): 1.2
- FIC ([1]; artemiside:celastrol drug ratio 40:60, LO2): 1.56
- FIC ([1]; artemiside:celastrol drug ratio 60:40, LO2): 1.03
- FIC ([1]; artemiside:celastrol drug ratio 80:20, LO2): 0.48
- FIC [1, 8]: 0.7
- FIC [1, 9]: 0.4
- FIC [1, 10]: 0.29
- FIC [1, 11]: 0.23
- IC50 ([7]; NF54, abstract, read-out: IC50 late stage Pf NF54 gametocytes): 280 nM
- IC50 ([7]; NF54 gametocytes, luciferase, 72 h, mean ± SEM, this study, read-out: Late stage IV-V (luc 72 h) IC50): 282 ± 96.2 nM
- Fold change preference ratio LG to EG ([7]; this study): 4.1
- Fold change preference ratio LG to EG ([7]; this study, listed as celastrol): approximately 4
- IC50 ([3]; HepG2, 72 h): 940 ± 100 nM
- SI, selectivity index IC50 normal cell line/IC50 tumour cell line [3]: 0.83
- SI, selectivity index IC50 normal cell line/IC50 tumour cell line ([3]; listed as celastrol): < 1
- FIC ([4]; artemiside:celastrol drug ratio 20:80, HepG2): 0.35
- FIC ([4]; artemiside:celastrol drug ratio 40:60, HepG2): 0.34
- FIC ([4]; artemiside:celastrol drug ratio 60:40, HepG2): 0.14
- FIC ([4]; artemiside:celastrol drug ratio 80:20, HepG2): 0.08
- FIC [4, 12]: 0.88
- FIC [4, 13]: 0.4
- FIC [4, 14]: 0.23
- FIC [4, 15]: 0.14
- IC50 [5]: 450 ± 100 nM

Source: publication PMC9479156 (Frontiers in Pharmacology, 2022)
